Assay results taken from ChEMBL document CHEMBL1201862, “PubChem BioAssay data set” (2004).
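Results reflect a 48-hour exposure of cells in 96-well plates to compound at five concentrations. Abbreviation: GI50, concentration required for 50% inhibition of growth.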 Active and inactive are the calls of the source. Cut-off read from the data, not from the text of the source: active = GI50 up to about 1.1 µM and inactive = higher.

How the values were obtained:
Assay in all cases: NCI anticancer screen, dose series, 48 h
786-0 = system: 786-0
A549 = system: A549
ACHN = system: ACHN
BT-549 = system: BT-549
CAKI-1 = system: CAKI-1
COLO 205 = system: COLO 205
DU-145 = system: DU-145
EKVX = system: EKVX
HCC 2998 = system: HCC 2998
HCT-116 = system: HCT-116
HCT-15 = system: HCT-15
HL-60 = system: HL-60
HOP-62 = system: HOP-62
HOP-92 = system: HOP-92
HT-29 = system: HT-29
IGROV-1 = system: IGROV-1
K562 = system: K562
KM12 = system: KM12
LOX IMVI = system: LOX IMVI
M14 = system: M14
MCF7 = system: MCF7
MDA-MB-435 = system: MDA-MB-435
MDA-N = system: MDA-N
MOLT-4 = system: MOLT-4
Malme-3M = system: Malme-3M
NCI-H226 = system: NCI-H226
NCI-H23 = system: NCI-H23
NCI-H460 = system: NCI-H460
NCI-H522 = system: NCI-H522
NCI/ADR-RES = system: NCI/ADR-RES
OVCAR-3 = system: OVCAR-3
OVCAR-4 = system: OVCAR-4
OVCAR-5 = system: OVCAR-5
OVCAR-8 = system: OVCAR-8
PC-3 = system: PC-3
RPMI-8226 = system: RPMI-8226
RXF 393 = system: RXF 393
SF-268 = system: SF-268
SF-295 = system: SF-295
SK-MEL-28 = system: SK-MEL-28
SK-MEL-2 = system: SK-MEL-2
SK-MEL-5 = system: SK-MEL-5
SK-OV-3 = system: SK-OV-3
SN12C = system: SN12C
SNB-19 = system: SNB-19
SNB-75 = system: SNB-75
SR = system: SR
SW-620 = system: SW-620
T47D = system: T47D
TK-10 = system: TK-10
U-251 = system: U-251
UACC-257 = system: UACC-257
UACC-62 = system: UACC-62
UO-31 = system: UO-31
A498 = system: A498
CCRF-CEM = system: CCRF-CEM
MDA-MB-231 = system: MDA-MB-231
SF-539 = system: SF-539

Measured: GI50

CC(=O)NC1C(OCc2ccccc2)OC(CO)C(O)C1OCC(=O)NC(C)C(=O)NC(CCC(=O)OCCNC(=O)c1cccc2cc3ccccc3nc12)C(N)=O (stereo not given)
inactive: 786-0 18.7 µM | A549 6.11 µM | ACHN 12.3 µM | BT-549 20.3 µM | CAKI-1 14.8 µM | COLO 205 21.3 µM | DU-145 11.3 µM | EKVX 24.9 µM | HCC 2998 18.4 µM | HCT-116 10.4 µM | HL-60 22.2 µM | HOP-62 24.3 µM | HOP-92 23.2 µM | HT-29 13 µM | IGROV-1 17.8 µM | K562 39.1 µM | KM12 21.9 µM | LOX IMVI 11.2 µM | M14 20.6 µM | MCF7 25.2 µM | MDA-MB-435 17.2 µM | MDA-N 26.4 µM | MOLT-4 6.82 µM | Malme-3M 15.6 µM | NCI-H226 18.5 µM | NCI-H23 20.7 µM | NCI-H460 8.95 µM | NCI-H522 16.8 µM | NCI/ADR-RES 21.6 µM | OVCAR-3 20.5 µM | OVCAR-4 20.8 µM | OVCAR-5 22.1 µM | OVCAR-8 18 µM | PC-3 27.4 µM | RPMI-8226 1.33 µM | RXF 393 16.5 µM | SF-268 22.3 µM | SF-295 21.4 µM | SK-MEL-28 19.4 µM | SK-MEL-2 26.4 µM | SK-MEL-5 17 µM | SK-OV-3 21.6 µM | SN12C 22.3 µM | SNB-19 31.4 µM | SNB-75 20.5 µM | SR 8.22 µM | SW-620 25.2 µM | T47D 22.5 µM | TK-10 16.1 µM | U-251 18.4 µM | UACC-257 28.2 µM | UACC-62 15.7 µM | UO-31 14.5 µM
13.9 µM: HCT-15

CCOc1cc2c(OCc3ccccc3)cc3c4cc(OC)c(OC)cc4c[n+](C)c3c2cc1OC
inactive: 786-0 2.74 µM | A498 22.2 µM | A549 4.82 µM | ACHN 19.4 µM | CAKI-1 25.4 µM | DU-145 3.62 µM | EKVX 17.8 µM | HCC 2998 1.57 µM | HCT-116 1.56 µM | HOP-62 2.99 µM | HT-29 2.66 µM | K562 1.18 µM | KM12 1.15 µM | LOX IMVI 2.07 µM | M14 2.03 µM | MDA-MB-231 2.29 µM | NCI-H226 1.5 µM | NCI-H23 2.73 µM | NCI-H460 4.97 µM | NCI/ADR-RES > 100 µM | OVCAR-4 2.04 µM | OVCAR-5 7.13 µM | OVCAR-8 2.19 µM | PC-3 1.66 µM | RPMI-8226 2.06 µM | RXF 393 2.4 µM | SF-295 8.57 µM | SF-539 1.3 µM | SK-MEL-28 1.36 µM | SK-MEL-2 1.22 µM | SK-MEL-5 1.38 µM | SK-OV-3 3.02 µM | SW-620 1.47 µM | TK-10 10.3 µM | UACC-257 1.62 µM | UACC-62 1.27 µM | UO-31 25.3 µM
59.6 µM: HCT-15
active: BT-549 0.789 µM | CCRF-CEM 0.494 µM | COLO 205 0.259 µM | HOP-92 0.361 µM | MCF7 0.671 µM | MDA-MB-435 0.789 µM | MDA-N 0.857 µM | MOLT-4 0.818 µM | Malme-3M 0.986 µM | NCI-H522 0.391 µM | OVCAR-3 1.06 µM | SF-268 0.492 µM | SN12C 0.471 µM | SNB-19 0.385 µM | SNB-75 0.442 µM | SR 0.631 µM | T47D 0.446 µM | U-251 0.601 µM
